Source: patent US11591355B2 (Peloton Therapeutics, Inc., priority 2017, dated 2023)
Read-outs that look alike come from different tables or passages of the source.

Key:
[1] = molecular target: T1, Human CD73 (Homo sapiens, UniProt P21589); test: CD73 Enzyme Assay; assay type: biochemical; conditions: read-out: CD73 Enzyme Assay IC50
T1 construct: purchased R&D Systems; host or cells: CHO cells
T1 sequence (P21589 27-549): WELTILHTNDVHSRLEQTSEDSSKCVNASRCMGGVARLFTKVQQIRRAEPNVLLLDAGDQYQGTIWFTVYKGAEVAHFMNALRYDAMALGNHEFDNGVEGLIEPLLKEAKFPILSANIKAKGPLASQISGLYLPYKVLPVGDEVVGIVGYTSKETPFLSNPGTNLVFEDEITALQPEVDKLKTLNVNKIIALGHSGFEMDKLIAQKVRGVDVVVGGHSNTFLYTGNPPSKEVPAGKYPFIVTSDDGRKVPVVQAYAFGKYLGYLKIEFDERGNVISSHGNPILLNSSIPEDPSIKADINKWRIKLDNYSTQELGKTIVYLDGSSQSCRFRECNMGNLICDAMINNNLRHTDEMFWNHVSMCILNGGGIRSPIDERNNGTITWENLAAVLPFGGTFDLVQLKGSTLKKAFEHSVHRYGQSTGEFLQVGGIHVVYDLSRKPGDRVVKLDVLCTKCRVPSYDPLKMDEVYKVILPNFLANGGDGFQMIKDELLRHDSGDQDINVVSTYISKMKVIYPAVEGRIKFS

[2] = molecular target: T2, CD73 on U138 human neuroglioma cells (Homo sapiens, UniProt P21589); test: CD73 Cell-Based Assay
T2 construct: U138 cells were obtained from ATCC and cultured in DMEM with 10% FBS; host or cells: U138 human neuroglioma cells
T2 sequence (P21589 27-549): T1 sequence (P21589 27-549)
Summary of the method: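 Whole U138 cells washed free of phosphate were incubated with 200 μM AMP (mixture concentration before equal-volume addition) plus compound in HEPES-buffered saline, pH 7.4, for 2 h at 37 °C, 5% CO2. Adenosine-forming activity read as inorganic phosphate released into supernatant by malachite green.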

[3] = 0.25 nM hCD73, 25 μM AMP, kinetic read at 360 nm
[4] = U138 cells, AMP substrate, 2 hours at 37° C., inorganic phosphate by malachite green

Structure (SMILES)	IC50 [1, 3]	IC50 [2, 4]	IC50 [1]	IC50 [2]
C[C@@H](Nc1nc(Cl)nc2c1ccn2[C@@H]1O[C@H](CS(=O)(=O)CP(=O)(O)O)[C@@H](O)[C@H]1O)c1ccc(Cl)cc1 [Compound 179, [(2S,3S,4R,5R)-5-[2-chloro-4-[[(1R)-1-(4-chlorophenyl)ethyl]-amino]pyrrolo[2,3-d]-pyrimidin-7-yl]-3,4-dihydroxy-tetrahydro-furan-2-yl]methyl-sulfonylmethylphos-phonic acid]	< 10 nM	< 10 nM		
C[C@@H](Nc1nc(Cl)nc2c1ccn2[C@@H]1O[C@H](CS(=O)(=O)CP(=O)(O)O)[C@@H](O)[C@H]1O)c1cccc(C#N)c1 [Compound 180, [(2S,3S,4R,5R)-5-[2-chloro-4-[[(1R)-1-(3-cyanophenyl)ethyl]-amino]pyrrolo[2,3-d]-pyrimidin-7-yl]-3,4-dihydroxy-tetrahydro-furan-2-yl]methyl-sulfonylmethylphos-phonic acid]	< 10 nM	< 10 nM		
C[C@H](Nc1nc(Cl)nc2c1ccn2[C@@H]1O[C@H](CS(=O)(=O)CP(=O)(O)O)[C@@H](O)[C@H]1O)c1ccc(C#N)cc1 [Compound 181, [(2S,3S,4R,5R)-5-[2-chloro-4-[[(1S)-1-(4-cyanophenyl)ethyl]-amino]pyrrolo[2,3-d]-pyrimidin-7-yl]-3,4-dihydroxy-tetrahydro-furan-2-yl]methyl-sulfonylmethylphos-phonic acid]	< 10 nM	< 10 nM		
O=P(O)(O)CS(=O)(=O)C[C@H]1O[C@@H](n2ccc3c(NC4CCC(F)(F)CC4)nc(Cl)nc32)[C@H](O)[C@@H]1O [Compound 182, [(2S,3S,4R,5R)-5-[2-chloro-4-[(4,4-difluoro-cyclohexyl)amino]-pyrrolo[2,3-d]-pyrimidin-7-yl]-3,4-dihydroxy-tetrahydro-furan-2-yl]methyl-sulfonylmethylphos-phonic acid]	< 10 nM	< 10 nM		
C[C@H](Nc1nc(Cl)nc2c1ccn2[C@@H]1O[C@H](CS(=O)(=O)CP(=O)(O)O)[C@@H](O)[C@H]1O)c1ccc(F)cc1F [Compound 183, [(2S,3S,4R,5R)-5-[2-chloro-4-[[(1S)-1-(2,4-difluorophenyl)ethyl]-amino]pyrrolo[2,3-d]-pyrimidin-7-yl]-3,4-dihydroxy-tetrahydro-furan-2-yl]methyl-sulfonylmethylphos-phonic acid]	< 10 nM	< 10 nM		
CCOP(=O)(O)COC[C@H]1O[C@@H](n2ccc3c(NC4CCCC4)nc(Cl)nc32)[C@H](O)[C@@H]1O [Compound 184, [(2R,3S,4R,5R)-5-[2-chloro-4-(cyclopentyl-amino)pyrrolo[2,3-d]-pyrimidin-7-yl]-3,4-dihydroxy-tetrahydro-furan-2-yl]methoxy-methylethoxy-phos-phinic acid]			> 1000 nM	100 to 1000 nM
CN(c1nc(Cl)nc2c1ncn2[C@@H]1O[C@H](COCP(=O)(O)O)[C@@H](O)[C@H]1O)C1CCCC1 [Compound 186, [(2R,3S,4R,5R)-5-[2-chloro-6-[cyclopentyl-(methyl)amino]purin-9-yl]-3,4-dihydroxy-tetrahydrofuran-2-yl]-methoxymethylphos-phonic acid]	< 10 nM	10 to 100 nM		
CC(C)(C)C(=O)OCOP(=O)(COC[C@H]1O[C@@H](n2ccc3c(NC4CCCC4)nc(Cl)nc32)[C@H](O)[C@@H]1O)OCOC(=O)C(C)(C)C [Compound 187, [[(2R,3S,4R,5R)-5-[2-chloro-4-(cyclopentyl-amino)pyrrolo[2,3-d]-pyrimidin-7-yl]-3,4-dihydroxy-tetrahydro-furan-2-yl]methoxy-methyl-(2,2-dimethyl-propanoyloxymethoxy)-phosphoryl]oxymethyl 2,2-dimethylpropanoate]	> 1000 nM	> 1000 nM		
CC(C)(C)C(=O)OCOP(=O)(O)COC[C@H]1O[C@@H](n2ccc3c(NC4CCCC4)nc(Cl)nc32)[C@H](O)[C@@H]1O [Compound 188, [(2R,3S,4R,5R)-5-[2-chloro-4-(cyclopentyl-amino)pyrrolo[2,3-d]-pyrimidin-7-yl]-3,4-dihydroxy-tetrahydro-furan-2-yl]methoxy-methyl-(2,2-dimethyl-propanoyloxymethoxy)-phosphinic acid]	< 10 nM	100 to 1000 nM		
C[C@@H](Nc1nc(C#N)nc2c1ccn2[C@@H]1O[C@H](COCP(=O)(O)O)[C@@H](O)[C@H]1O)c1ccc(F)cc1F [Compound 189, [(2R,3S,4R,5R)-5-[2-cyano-4-[[(1R)-1-(2,4-difluorophenyl)ethyl]-amino]pyrrolo[2,3-d]-pyrimidin-7-yl]-3,4-dihydroxy-tetrahydro-furan-2-yl]methoxy-methylphosphonic acid]	< 10 nM	< 10 nM		
O=P(O)(O)COC[C@H]1O[C@@H](n2ccc3c(N4CCCC4)nc(Cl)nc32)[C@H](O)[C@@H]1O [Compound 190, [(2R,3S,4R,5R)-5-(2-chloro-4-pyrrolidin-1-yl-pyrrolo[2,3-d]-pyrimidin-7-yl)-3,4-dihydroxy-tetrahydro-furan-2-yl]methoxy-methylphosphonic acid]	< 10 nM	< 10 nM		
CN(c1nc(Cl)nc2c1ccn2[C@@H]1O[C@H](COCP(=O)(O)O)[C@@H](O)[C@H]1O)C1CCCC1 [Compound 192, [(2R,3S,4R,5R)-5-[2-chloro-4-[cyclopentyl-(methyl)amino]pyrrolo-[2,3-d]pyrimidin-7-yl]-3,4-dihydroxy-tetra-hydrofuran-2-yl]-methoxymethylphos-phonic acid]	< 10 nM	< 10 nM		
CC(C)OC(=O)OCOP(=O)(O)COC[C@H]1O[C@@H](n2ccc3c(NC4CCCC4)nc(Cl)nc32)[C@H](O)[C@@H]1O [Compound 193, [(2R,3S,4R,5R)-5-[2-chloro-4-(cyclopentyl-amino)pyrrolo[2,3-d]-pyrimidin-7-yl]-3,4-dihydroxy-tetrahydro-furan-2-yl]methoxy-methyl-(isopropoxy-carbonyloxymethoxy)-phosphinic acid]	10 to 100 nM	10 to 100 nM		
CC(C)C(=O)OCOP(=O)(O)COC[C@H]1O[C@@H](n2ccc3c(NC4CCCC4)nc(Cl)nc32)[C@H](O)[C@@H]1O [Compound 194, [(2R,3S,4R,5R)-5-[2-chloro-4-(cyclopentyl-amino)pyrrolo[2,3-d]-pyrimidin-7-yl]-3,4-dihydroxy-tetrahydro-furan-2-yl]methoxy-methyl-(2-methyl-propanoyloxymeth-oxy)phosphinic acid]	< 10 nM	< 10 nM		
CCN(c1nc(Cl)nc2c1ccn2[C@@H]1O[C@H](COCP(=O)(O)O)[C@@H](O)[C@H]1O)C1CCCC1 [Compound 195, [(2R,3S,4R,5R)-5-[2-chloro-4-[cyclopentyl-(ethyl)amino]pyrrolo-[2,3-d]pyrimidin-7-yl]-3,4-dihydroxy-tetra-hydrofuran-2-yl]-methoxymethylphos-phonic acid]	< 10 nM	< 10 nM		
O=P(O)(O)COC[C@H]1O[C@@H](n2ccc3c(N(CC4CC4)C4CCCC4)nc(Cl)nc32)[C@H](O)[C@@H]1O [Compound 196, [(2R,3S,4R,5R)-5-[2-chloro-4-[cyclopentyl-(cyclopropylmethyl)-amino]pyrrolo[2,3-d]-pyrimidin-7-yl]-3,4-dihydroxy-tetrahydro-furan-2-yl]methoxy-methylphosphonic acid]	< 10 nM	< 10 nM		
C[C@@H](Nc1nc(Cl)nc2c1ccn2C1O[C@H](COCP(=O)(O)O)[C@@H](O)[C@H]1O)c1ccc(C2CC2)cc1 (stereo partly drawn) [Compound 197, [(2R,3S,4R,5R)-5-[2-chloro-4-[[(1R)-1-(4-cyclopropylphenyl)-ethyl]amino]pyrrolo-[2,3-d]pyrimidin-7-yl]-3,4-dihydroxy-tetra-hydrofuran-2-yl]-methoxymethylphos-phonic acid]	< 10 nM	< 10 nM		
C[C@H](Nc1nc(Cl)nc2c1ccn2[C@@H]1O[C@H](COCP(=O)(O)O)[C@@H](O)[C@H]1O)c1ccc(C2CC2)cc1 [Compound 198, [(2R,3S,4R,5R)-5-[2-chloro-4-[[(1S)-1-(4-cyclopropylphenyl)-ethyl]amino]pyrrolo-[2,3-d]pyrimidin-7-yl]-3,4-dihydroxy-tetra-hydrofuran-2-yl]-methoxymethylphos-phonic acid]	< 10 nM	< 10 nM		
Cc1cn([C@@H]2O[C@H](COCP(=O)(O)O)[C@@H](O)[C@H]2O)c2nc(Cl)nc(NC3CCCC3)c12 [Compound 199, [(2R,3S,4R,5R)-5-[2-chloro-4-(cyclopentyl-amino)-5-methyl-pyrrolo[2,3-d]-pyrimidin-7-yl]-3,4-dihydroxy-tetrahydro-furan-2-yl]methoxy-methylphosphonic acid]	> 1000 nM	> 1000 nM		
Cc1cc2c(NC3CCCC3)nc(Cl)nc2n1[C@@H]1O[C@H](COCP(=O)(O)O)[C@@H](O)[C@H]1O [Compound 200, [(2R,3S,4R,5R)-5-[2-chloro-4-(cyclopentyl-amino)-6-methyl-pyrrolo[2,3-d]-pyrimidin-7-yl]-3,4-dihydroxy-tetrahydro-furan-2-yl]methoxy-methylphosphonic acid]	10 to 100 nM	10 to 100 nM		
